Data on one substance can be found in publication PMC3229523, “Identification of Lactoferricin B Intracellular Targets Using an Escherichia coli Proteome Chip” (PLoS ONE, 2011).

Assay [1] has as its system MalP. Nature of the assay: Fluorescence polarization assay, MalP. The format is binding, E. coli. To be noted: 100 nM DyLight 549-labeled LfcinB; protein 0.025-0.4 µM; data not shown. From the text:
(§1) FP assays, investigations of the binding between two molecules in a homogeneous aqueous environment, were used to validate the identified 153 proteins. […] If a fluorophore only binds to a small molecule, such as peptide, the rotation of the complex is fast and the light emits in a different plane of polarization. Therefore, the degree of polarization is low. However, once a fluorophore binds to a large molecule, the bound complex is stimulated with polarized light. The light emits in the same polarized plane, and the complex is maintained in the same plane of polarization, causing an increase in the degree of polarization [22]–[24]. The amount of molecules binding to a fluorophore influences the degree of polarization. In this study, LfcinB was labeled with DyLight™ 549 as a reference value. Once the protein bound to LfcinB, like a fluorophore binds to a large molecule, a high degree of polarization is expected.
(§2) Before the assays, LfcinB was labeled with DyLight™ 549 and tested proteins were quantified with a Pierce® bicinchoninic acid (BCA™) protein assay (Thermo). To label the LfcinB, DyLight™ 549-NHS ester and LfcinB (68∶1, mole/mole) were mixed in PBS at room temperature for 1 h, a D-Salt™ polyacrylamide desalting column (Thermo) was used to remove excess dye and the labeling efficiency of the eluted solution was calculated. […]
A general note: Fluorescence polarisation rises when a labelled molecule tumbles more slowly, as on binding a larger partner.

In assay [2] the test system is YhaN. As to the kind of experiment: Fluorescence polarization assay, YhaN. The format is binding, E. coli. Conditions: 100 nM DyLight 549-labeled LfcinB; protein 0.025-0.4 µM; data not shown.
Source text: as §1, §2

Assay [3] has as its system other 15 knockout strains. As to the kind of experiment: Knockout assay, other 15 knockout strains. The format is cell-based, E. coli K-12. Conditions: 32 µM LfcinB, LB medium, 37°C. As to the method: (§3) The E. coli K-12 BW25113 (isogenic parent) strain and the 16 knockout strains were obtained from the E. coli Genetic Resources at the Coli Genetic Stock Center (CGSC) at Yale University. The strains were inoculated into LB medium, and incubated at 37°C with shaking. After 16 h of incubation, the cultures were diluted to approximately 10^7 CFU/ml with LB medium. Thirty-two µM of LfcinB were then added to the cultures in a 96-well plate. PBS was used as a negative control. Cultures with LfcinB or PBS were then incubated at 37°C with shaking in a microplate reader and the growth was observed by measuring the OD595 value every 20 min for 7 h 20 min.

The subject of assay [4] is RecC. Nature of the assay: Fluorescence polarization assay, RecC. Conditions: 100 nM DyLight 549-labeled LfcinB; protein 0.025-0.4 µM; data not shown. Type of assay: binding, E. coli.
Source text: as §1, §2

For assay [5], the system named is GldA. As to the kind of experiment: Fluorescence polarization assay, GldA. Conditions: 100 nM DyLight 549-labeled LfcinB; protein 0.025-0.4 µM; data not shown. Type of assay: binding, E. coli.
Source text: as §1, §2

Assay [6] has as its system isogenic parent strain and the knockout strains. As to the kind of experiment: Knockout assay, isogenic parent and knockout strains together. Type of assay: cell-based, E. coli K-12. To be noted: 32 µM LfcinB, LB medium, 37°C. How it is done:
as §3

For assay [7], the system named is nrdF knockout mutant. Nature of the assay: Knockout assay, nrdF knockout mutant. Conditions: 32 µM LfcinB, LB medium, 37°C. Type of assay: cell-based, E. coli K-12. How it is done: as §3
For assay [8], the system named is CyaA.
Source text: as §1, §2

Assay [9] concerns YjbM. Nature of the assay: Fluorescence polarization assay, YjbM. Type of assay: binding, E. coli. To be noted: 100 nM DyLight 549-labeled LfcinB; protein 0.025-0.4 µM; data not shown.
Source text: as §1, §2

Assay [10] deals with YcaO. As to the kind of experiment: Fluorescence polarization assay, YcaO. Type of assay: binding, E. coli. To be noted: 100 nM DyLight 549-labeled LfcinB; protein 0.025-0.4 µM; data not shown.
Source text: as §1, §2

For assay [11], the system named is bacteria. Conditions: cited from earlier work. The text has this:
Natural antimicrobial peptides are pervasive in plants, insects and animals.

Assay [12] relates to pyruvate in E. coli. As to the kind of experiment: Pyruvate assay: pyruvate level in E. coli (OD570). Type of assay: cell-based, E. coli MG1655. To be noted: 32 µM LfcinB. From the text:
(§4) To confirm one of the mechanisms of LfcinB action in pyruvate metabolism, a minimal medium was chosen; because general LB medium contains many carbon sources, including sugars, alcohols and organic acids, this minimal medium allowed glucose to be the sole carbon source in the pyruvate assays. Minimal medium consisted of 6 g/l NaH2PO4, 3 g/l K2HPO4, 0.5 g/l NaCl, 0.12 g/l MgSO4, 1 g/l NH4Cl, 0.01 g/l CaCl2 and 5 g/l glucose. A 0.22 µm filter (Millex®GS, Millipore) was used to filter the minimal medium. E. coli MG1655 was first inoculated into the minimal medium and incubated at 37°C for 16 h with shaking as a preculture. The preculture was diluted 100-fold with the minimal medium in 96-well plate, and 32 µM of LfcinB were added. The mixture was incubated with shaking in a microplate reader at 37°C, and the absorbance was measured after 9 h. Finally, the mixture was harvested by centrifugation at 3452 g for 5 min at 4°C, and each supernatant was removed. The pellets were then stored at −80°C.
To extract the pyruvate in E. coli, hot water extraction was used, a procedure adapted from Canelas et al.. Boiling water was poured into the pellet and it was immediately vortexed. The mixture was then placed in a water bath at 95–100°C for 15 min and cooled on ice. […] Finally, the OD570 of the mixtures was measured by a microplate reader to detect the color intensity.

The subject of assay [13] is NrdD. Nature of the assay: Fluorescence polarization assay, NrdD. The format is binding, E. coli. To be noted: 100 nM DyLight 549-labeled LfcinB; protein 0.025-0.4 µM; data not shown.
Source text: as §1, §2

Assay [14] relates to E. coli MG1655. As to the kind of experiment: Pyruvate assay: E. coli growth (OD595). Conditions: 32 µM LfcinB. The format is cell-based.
Source text: as §4

The test system of assay [15] is E. coli. To be noted: cited from earlier work. How it is done:
Natural antimicrobial peptides are pervasive in plants, insects and animals. […] It is possible that LfcinB served as nutrient for bacteria in the beginning of the assay. […] In the middle part (2–4 h) of the growth curves, the ...

Entries after “also recorded” stand apart in the source; their conditions may differ. Ends that are not written are not given here. * marks the point of attachment. Biotin = O=C1N[C@H]2[C@H](CS[C@H]2CCCCC(=O)*)N1

Take “Lactoferricin B (Biotin-FKCRRWQWRMKKLGAPSITCVRRAF; ends and bridges not checked) [LfcinB]”: the “binding to MalP” value in assay [1] is “confirmed to bind to LfcinB”. Besides, in assay [2], the “binding to YhaN” value is “confirmed to bind to LfcinB”. In addition, the “growth with LfcinB” value in assay [3] is listed as “the growth was inhibited by LfcinB”. Besides, the “binding to RecC” value in assay [4] was “confirmed to bind to LfcinB”. Moreover, in assay [5], the “binding to GldA” value is reported as “confirmed to bind to LfcinB”. Besides, in [6] (0–1.5 h), the “growth curves, initial part (0–1.5 h), with vs without LfcinB” value is on record as “higher growth curves than the strains grown without LfcinB”. Moreover, the “slopes of growth curves, middle part (2–4 h), with vs without LfcinB” value in assay [6] (2–4 h) is “lower than the slopes of the strains without LfcinB”. Besides, in [7], the “growth curve with vs without LfcinB” value is given as “significant inhibited”. Moreover, the “degree of polarization vs BSA” value in [8] (100 nM DyLight 549-labeled LfcinB, protein 0.025-0.4 µM, PBS, 0.005% BSA, 0.01% Triton X-100, room temperature, 1 h, Figure 5D) was “higher polarization than the negative control”. The “concentration dependence of polarization” value in assay [8] (CyaA, two-fold dilution 0.4 µM to 0.025 µM, 100 nM labeled LfcinB) is on record as “increased with increasing concentrations of these 4 proteins”. In assay [9], the “binding to YjbM” value is reported as “confirmed to bind to LfcinB”. The “binding to YcaO” value in [10] is on record as “confirmed to bind to LfcinB”. In addition, in assay [11], the “bacterial growth inhibition and membrane effect” value was “inhibits bacterial growth by impeding intracellular activities without destroying membrane integrity or penetrating the cytoplasmic membrane”; the “mechanism of antimicrobial activity” value was “pore-forming mechanism”. In [12] (minimal medium), the “pyruvate (OD570) level after 9 h with vs without LfcinB” value is given as “accumulation of pyruvate; also recorded: higher than the level in E. coli without LfcinB”. Also, the “Value of pyruvate (OD570) after 9 h incubation” value in [12] (minimal medium with glucose, 37°C, hot water extraction, pyruvate assay kit, E. coli without LfcinB 1.976±0.084) was found to be 2.526±0.338. For the same substance, the “binding to NrdD” value in assay [13] is “confirmed to bind to LfcinB”. Further, the “Value of OD595 after 9 h incubation” value in assay [14] (minimal medium with glucose, 37°C, 9 h, E. coli without LfcinB 0.325±0.011) came to 0.267±0.011. Besides, in [14] (minimal medium with glucose, 37°C, E. coli without LfcinB 0.057±0.002), the “Initial value of OD595” value turned out to be 0.058±0.001. Further, in assay [14] (minimal medium, 9 h), the “amount (OD595) of E. coli after 9 h with vs without LfcinB” value was “lower than the level of E. coli without LfcinB”. The “DNA synthesis at initiation of LfcinB into the medium” value in assay [15] is on record as “DNA synthesis was increased”. In assay [15] (sublethal concentration), the “DNA, RNA and protein synthesis of E. coli” value was “inhibited DNA, RNA and protein synthesis of E. coli”; the “filamentation during an SOS-response” value is recorded as “induced filamentation during an SOS-response”.
